# pIC50: −log10 of the molar value. The source made the active and inactive calls. No cut-off for these calls is given here.
# Assays:
# [1] = tested on: Rattus norvegicus; experiment: Toxicity against Fischer-344 rat up to 0.1 mmol/kg, ip; assay type: organism-based; conditions: in vivo
# [2] = Antioxidant activity assessed as inhibition of AAPH-induced linoleic acid lipid peroxidation at 100 uM by spectrophotometric analysis; assay type: functional
# [3] = tested on: Radical scavenging activity; experiment: Antioxidant activity assessed as DPPH radical scavenging activity at 100 uM after 60 mins by spectrophotometric analysis; assay type: functional
# [4] = tested on: Radical scavenging activity; experiment: Antioxidant activity assessed as DPPH radical scavenging activity at 100 uM after 20 mins by spectrophotometric analysis; assay type: functional
# [5] = Inhibition of soybean LOX using sodium linoleate as substrate by spectrophotometric analysis; design: species or system Glycine max; conditions: for pIC50: read-out: IC50
# [6] = Cytotoxicity against human 1BR3 cells assessed as cell viability at 10 uM after 24 hrs by MTT assay; assay type: cell-based; conditions: read-out: Activity
# [7] = Cytotoxicity against human 1BR3 cells assessed as cell viability at 20 uM after 24 hrs by MTT assay; assay type: cell-based; conditions: read-out: Activity
# [8] = Cytotoxicity against human 1BR3 cells assessed as cell viability at 100 uM after 24 hrs by MTT assay; assay type: cell-based; conditions: read-out: Activity
# [9] = Cytotoxicity against human 1BR3 cells assessed as cell viability at 50 uM after 24 hrs by MTT assay; assay type: cell-based; conditions: read-out: Activity
# [10] = Cytotoxicity against human 1BR3 cells assessed as cell viability at 1 uM after 24 hrs by MTT assay; assay type: cell-based; conditions: read-out: Activity
# [11] = tested on: Rattus norvegicus; experiment: Antiinflammatory activity in Fischer-344 rat assessed as inhibition of carrageenan-induced paw edema at 0.01 mmol/kg, ip after 3.5 hrs relative to control; assay type: functional; conditions: Fischer-344, ip
# [12] = tested on: Glycine max; experiment: Inhibition of soybean LOX using sodium linoleate as substrate at 100 uM by spectrophotometric analysis
smiles,measurement,setting,value
COc1c2ccoc2c(/C=C/C(=O)OC(C)(C)C)c2oc(=O)ccc12,Activity,[1],Non-toxic
same,inhibition,[2],79%
same,Activity,[3],inactive
same,Activity,[4],inactive
same,IC50,[5],Not Active
O=c1ccc2cc3ccoc3c(O)c2o1 [XANTHOTOXOL],inhibition,[2],5%
same,Activity,[3],22%
same,Activity,[4],25%
same,pIC50,[5],4.05
O=c1ccc2c(Br)c3ccoc3c(O)c2o1,inhibition,[2],83%
same,Activity,[3],43%
same,Activity,[4],33%
same,pIC50,[5],4.30
Cc1oc2c(C)c3oc(=O)cc(C)c3cc2c1Br,inhibition,[2],35%
same,Activity,[3],100%
same,Activity,[4],inactive
same,IC50,[5],Not Active
COc1c2ccoc2c(-c2ccc(C(=O)O)cc2)c2oc(=O)ccc12,Activity,[1],Non-toxic
same,inhibition,[2],66%
same,Activity,[3],19%
same,Activity,[4],22%
same,pIC50,[5],4.22
COc1c2ccoc2c(Br)c2oc(=O)ccc12,inhibition,[2],83%
same,Activity,[3],7%
same,Activity,[4],7%
same,pIC50,[5],4.05
COc1c2occc2cc2ccc(=O)oc12 [METHOXSALEN],"viability at 24 h, 10 µM",[6],98.1%
same,"viability at 24 h, 20 µM",[7],96.7%
same,inhibition,[2],5%
same,Activity,[3],16%
same,"viability at 24 h, 100 µM",[8],89.6%
same,"viability at 24 h, 50 µM",[9],92%
same,Activity,[4],16%
same,pIC50,[5],4.30
same,"viability at 24 h, 1 µM",[10],101%
CCOC(=O)/C=C/c1c(C)oc2c(C)c3oc(=O)cc(C)c3cc12,Activity,[1],Non-toxic
same,inhibition,[2],77%
same,Activity,[3],60%
same,Activity,[4],8%
same,IC50,[5],Not Active
COc1c2ccoc2c(-c2ccc(/C=C/C(=O)OC(C)(C)C)cc2)c2oc(=O)ccc12,Activity,[1],Non-toxic
same,inhibition,[2],77%
same,Activity,[3],12%
same,Activity,[4],8%
same,pIC50,[5],4.00
Cc1oc2c(C)c3oc(=O)cc(C)c3cc2c1/C=C/C(=O)OC(C)(C)C,Activity,[1],Non-toxic
same,"viability at 24 h, 10 µM",[6],55.6%
same,"viability at 24 h, 20 µM",[7],37%
same,inhibition,[2],80%
same,Activity,[3],11%
same,"viability at 24 h, 100 µM",[8],22.2%
same,inhibition in vivo at 10 µmol/kg,[11],46%
same,"viability at 24 h, 50 µM",[9],34.6%
same,Activity,[4],11%
same,pIC50,[5],5.03
same,"viability at 24 h, 1 µM",[10],67.9%
CCOC(=O)/C=C/c1c2ccoc2c(OC)c2oc(=O)ccc12,Activity,[1],Non-toxic
same,inhibition,[2],83%
same,Activity,[3],6%
same,Activity,[4],5%
same,pIC50,[5],4.12
COc1c2occc2c(/C=C/C(=O)OC(C)(C)C)c2ccc(=O)oc12,Activity,[1],Non-toxic
same,inhibition,[2],89%
same,Activity,[3],3%
same,Activity,[4],3%
same,IC50,[5],Not Active
COc1c2ccoc2c(/C=C/C(=O)O)c2oc(=O)ccc12,Activity,[1],Non-toxic
same,inhibition,[2],55%
same,Activity,[3],14%
same,Activity,[4],14%
same,pIC50,[5],4.08
CC(=O)c1c(C)oc2c(C)c3oc(=O)cc(C)c3cc12,inhibition,[2],67%
same,Activity,[3],14%
same,Activity,[4],14%
same,pIC50,[5],4.10
Cc1c(C)c2c(c(C)c1O)CCC(C)(C(=O)O)O2 (centres undefined),inhibition,[2],63%
COc1c2occc2c(/C=C/C(=O)OCc2cccc(Oc3ccccc3)c2)c2ccc(=O)oc12,Activity,[1],Non-toxic
same,inhibition,[2],89%
same,Activity,[3],9%
same,Activity,[4],7%
same,pIC50,[5],4.26
Cc1oc2c(C)c3oc(=O)cc(C)c3cc2c1/C=C/C(=O)O,Activity,[1],Non-toxic
same,inhibition,[2],73%
same,Activity,[3],11%
same,Activity,[4],11%
same,inhibition,[12],9%
Cc1cc2cc3c(C)cc(=O)oc3c(C)c2o1 [TRIOXSALEN],"viability at 24 h, 10 µM",[6],96.7%
same,"viability at 24 h, 20 µM",[7],95.2%
same,inhibition,[2],inactive
same,Activity,[3],inactive
same,"viability at 24 h, 100 µM",[8],95.2%
same,"viability at 24 h, 50 µM",[9],92.2%
same,Activity,[4],inactive
same,inhibition,[12],40%
same,"viability at 24 h, 1 µM",[10],107%
COc1c2ccoc2c(-c2ccc(/C=C/C(=O)O)cc2)c2oc(=O)ccc12,Activity,[1],Non-toxic
same,"viability at 24 h, 10 µM",[6],55.6%
same,"viability at 24 h, 20 µM",[7],24.7%
same,inhibition,[2],55%
same,Activity,[3],28%
same,"viability at 24 h, 100 µM",[8],13.3%
same,"viability at 24 h, 50 µM",[9],18.5%
same,Activity,[4],22%
same,pIC50,[5],4.62
same,"viability at 24 h, 1 µM",[10],65.6%
Cc1oc2c(C)c3oc(=O)cc(C)c3cc2c1-c1ccc(/C=C/C(=O)O)cc1,Activity,[1],Non-toxic
same,inhibition,[2],84%
same,Activity,[3],inactive
same,Activity,[4],inactive
same,inhibition,[12],13%
COc1ccc2c(c1)c(CC(=O)O)c(C)n2C(=O)c1ccc(Cl)cc1 [INDOMETHACIN],Activity,[1],Non-toxic
same,inhibition in vivo at 10 µmol/kg,[11],47%
COc1c2occc2c(Br)c2ccc(=O)oc12,inhibition,[2],62%
same,Activity,[3],8%
same,Activity,[4],8%
same,pIC50,[5],4.40
CCOC(=O)/C=C/c1c2occc2c(OC)c2ccc(=O)oc12,Activity,[1],Non-toxic
same,inhibition,[2],8%
same,Activity,[3],inactive
same,Activity,[4],inactive
same,IC50,[5],Not Active
Cc1oc2c(C)c3oc(=O)cc(C)c3cc2c1-c1ccc(/C=C/C(=O)OC(C)(C)C)cc1,Activity,[1],Non-toxic
same,inhibition,[2],41%
same,Activity,[3],inactive
same,Activity,[4],inactive
same,inhibition,[12],33%
O=c1ccc2c(O)c3ccoc3c(Br)c2o1,"viability at 24 h, 10 µM",[6],92.8%
same,"viability at 24 h, 20 µM",[7],95.2%
same,inhibition,[2],81%
same,Activity,[3],56%
same,"viability at 24 h, 100 µM",[8],91%
same,"viability at 24 h, 50 µM",[9],91.6%
same,Activity,[4],20%
same,pIC50,[5],4.52
same,"viability at 24 h, 1 µM",[10],97%
O=c1ccc2c(O)c3ccoc3cc2o1 [BERGAPTOL],inhibition,[2],95%
same,Activity,[3],36%
same,Activity,[4],34%
same,pIC50,[5],4.38
Cc1oc2c(C)c3oc(=O)cc(C)c3cc2c1-c1ccc(C(=O)O)cc1,Activity,[1],Non-toxic
same,inhibition,[2],80%
same,Activity,[3],inactive
same,Activity,[4],inactive
same,IC50,[5],Not Active
COc1c2occc2c(-c2ccc(/C=C/C(=O)O)cc2)c2ccc(=O)oc12,Activity,[1],Non-toxic
same,inhibition,[2],12%
same,Activity,[3],44%
same,Activity,[4],41%
same,pIC50,[5],4.21
COc1c2occc2c(C(C)=O)c2ccc(=O)oc12,inhibition,[2],85%
same,Activity,[3],8%
same,Activity,[4],8%
same,pIC50,[5],4.00
COc1c2occc2c(-c2ccc(C(=O)O)cc2)c2ccc(=O)oc12,Activity,[1],Non-toxic
same,inhibition,[2],100%
same,Activity,[3],15%
same,Activity,[4],11%
same,IC50,[5],Not Active
COc1c2occc2c(/C=C/C(=O)O)c2ccc(=O)oc12,Activity,[1],Non-toxic
same,inhibition,[2],62%
same,Activity,[3],7%
same,Activity,[4],7%
same,pIC50,[5],4.30
COc1c2ccoc2cc2oc(=O)ccc12 [BERGAPTEN],"viability at 24 h, 10 µM",[6],102%
same,"viability at 24 h, 20 µM",[7],99.4%
same,inhibition,[2],49%
same,Activity,[3],14%
same,"viability at 24 h, 100 µM",[8],88.9%
same,"viability at 24 h, 50 µM",[9],91.7%
same,Activity,[4],14%
same,IC50,[5],Not Active
same,"viability at 24 h, 1 µM",[10],105%
CC(Cc1ccc(O)c(O)c1)C(C)Cc1ccc(O)c(O)c1 (centres undefined),Activity,[3],83%
same,Activity,[4],81%
